The target of the assay is T1, UDP-3-O-acyl-N-acetylglucosamine deacetylase (Pseudomonas aeruginosa (strain ATCC 15692 / DSM 22644 / CIP 104116 / JCM 14847 / LMG 12228 / 1C / PRS 101 / PAO1), UniProt P47205).
T1 sequence (P47205 whole entry): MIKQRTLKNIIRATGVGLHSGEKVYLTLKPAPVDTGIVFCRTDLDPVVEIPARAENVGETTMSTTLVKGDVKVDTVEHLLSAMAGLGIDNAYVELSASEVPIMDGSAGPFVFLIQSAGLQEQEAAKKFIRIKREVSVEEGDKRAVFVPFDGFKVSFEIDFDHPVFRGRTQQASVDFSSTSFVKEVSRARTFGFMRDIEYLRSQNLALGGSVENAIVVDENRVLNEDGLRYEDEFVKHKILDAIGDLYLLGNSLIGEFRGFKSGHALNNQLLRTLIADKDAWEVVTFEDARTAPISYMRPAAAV
Put plainly: Inhibition Assay. An excerpt:
The LpxC inhibitors were used as the reference for development of flexible alignment-based pharamcophore, pharamcophore mapping study.

The structures appear in SMILES notation.

The IC50 is the concentration at which inhibition is half-maximal. Low readings indicate inhibition by little substance, high ones a need for much substance.

As for `CN(C)c1ccc(C2=N[C@@H](C(=O)NO)CO2)cc1` [CS273], half-maximal inhibition (IC50) was put at 4.9 µM.

The compound `CCCc1cc(C2=N[C@@H](C(=O)NO)CO2)cc(OC(F)(F)F)c1OC` [LpxC Inhibitor, L1] gave an IC50 of 0.5 µM.

Regarding `O=C(NO)[C@H]1COC(c2ccc(COc3cccc([N+](=O)[O-])c3)cc2)=N1` [LpxC Inhibitor, L2], inhibition was half-maximal at 0.56 µM (IC50).

`Cc1cc(C2=N[C@@H](C(=O)NO)CO2)ccc1F` [LpxC Inhibitor, L3]: the IC50 amounted to 1.2 µM.

Compound `C=CCOc1ccc(C2=N[C@@H](C(=O)NO)CO2)cc1C(F)(F)F` [LpxC Inhibitor, L4] had an IC50 of 2.2 µM.

In turn, `O=C(N[C@@H](CO)C(=O)NO)c1n[nH]c2ccccc12` [LpxC Inhibitor, L5] registered a concentration for half-maximal inhibition (IC50) of 13 µM.

On to `O=C(NO)[C@H]1COC(c2ccc(OCc3cccc(F)c3)c(C(F)(F)F)c2)=N1` [LpxC Inhibitor, L6], for which half-maximal inhibition (IC50) was put at 0.25 µM.

Consider `O=C(NO)[C@H]1COC(c2cc(F)cc(C(F)(F)F)c2)=N1` [LpxC Inhibitor, L7], for which the concentration for half-maximal inhibition (IC50) came out at 25 µM.

`O=C(NO)[C@H]1COC(c2n[nH]c3ccccc23)=N1` [LpxC Inhibitor, L9]: half-maximal inhibition (IC50) was put at 5.5 µM.

Regarding `CCOc1cc(C2=N[C@@H](C(=O)NO)CO2)ccc1F` [LpxC Inhibitor, L10], the half-inhibitory concentration (IC50) stood at 1 µM.

As for `CCCCn1nc(C2=N[C@@H](C(=O)NO)CO2)c2ccccc21` [LpxC Inhibitor, L11], half-maximal inhibition (IC50) was put at 10 µM.

`CCCCn1nc2ccccc2c1C1=N[C@@H](C(=O)NO)CO1` [LpxC Inhibitor, L12] gave a half-maximal inhibitory concentration (IC50) of 12 µM.

`CCCc1cc(C(=O)N[C@@H](CO)C(=O)NO)cc(OC(C)(C)C)c1OC` [LpxC Inhibitor, L13] gave a half-maximal inhibitory concentration (IC50) above 50 µM.

The compound `CCCc1cc(C2=N[C@H](C(=O)NO)CS2)cc(OC(F)(F)F)c1OC` [LpxC Inhibitor, L14] gave a half-maximal inhibitory concentration (IC50) of 17.8 µM.

`COc1ccc(C2=N[C@H](C(=O)NO)CO2)cc1OC(F)(F)F` [LpxC Inhibitor, L15] gave an IC50 of 0.16 µM.

As to `O=C(NO)[C@@H]1COC(c2ccc(OCc3cccc([N+](=O)[O-])c3)cc2)=N1` [LpxC Inhibitor, L16], the IC50 was 1 µM.

In the case of `O=C(NO)[C@@H]1COC(c2ccc(O)cc2)=N1` [LpxC Inhibitor, L17], the half-inhibitory concentration (IC50) is above 30 µM.

With `Cc1ccc(C2=N[C@H](C(=O)NO)CS2)cc1` [LpxC Inhibitor, L18], 38.5 µM corresponded to half-maximal inhibition (IC50).

These data come from BindingDB's records for doi:10.1111/j.1747-0285.2007.00608.x (National Institute of Pharmaceutical Education and Research, 2008).
